Reference: ChEMBL document CHEMBL1154822, “Synthesis and antiproliferative activity of 7-azaindirubin-3'-oxime, a 7-aza isostere of the natural indirubin pharmacophore” (J Nat Prod, 2009)

How the values were obtained:
Assay type in all cases: functional
[1] = system: OVCAR-4; assay: Cytotoxicity against human OVCAR4 cells assessed as cell growth at 0.1 uM after 1 to 11 days by MTT assay; conditions: read-out: Activity
[2] = system: SF-539; assay: Cytotoxicity against human SF539 cells assessed as cell growth at 10 uM after 1 to 11 days by MTT assay; conditions: read-out: Activity
[3] = system: NCI-H322M; assay: Cytotoxicity against human NCI-H322M cells assessed as cell growth at 10 uM after 1 to 11 days by MTT assay; conditions: read-out: Activity
[4] = system: Malme-3M; assay: Cytotoxicity against human MALME-3M cells assessed as cell growth at 0.1 uM after 1 to 11 days by MTT assay; conditions: read-out: Activity
[5] = system: OVCAR-3; assay: Cytotoxicity against human OVCAR-3 cells assessed as cell growth at 0.1 uM after 1 to 11 days by MTT assay; conditions: read-out: Activity
[6] = system: OVCAR-5; assay: Cytotoxicity against human OVCAR5 cells assessed as cell growth at 10 uM after 1 to 11 days by MTT assay; conditions: read-out: Activity
[7] = system: SF-539; assay: Cytotoxicity against human SF539 cells assessed as cell growth at 0.1 uM after 1 to 11 days by MTT assay; conditions: read-out: Activity
[8] = system: TK-10; assay: Cytotoxicity against human TK10 cells after 1 to 11 days by MTT assay
[9] = system: 786-0; assay: Cytotoxicity against human 786-0 cells assessed as cell growth at 0.1 uM after 1 to 11 days by MTT assay; conditions: read-out: Activity
[10] = system: MDA-MB-231; assay: Cytotoxicity against human MDA-MB-231 cells assessed as cell growth at 1 uM after 1 to 11 days by MTT assay; conditions: read-out: Activity
[11] = system: UACC-62; assay: Cytotoxicity against human UACC62 cells assessed as cell growth at 0.1 uM after 1 to 11 days by MTT assay; conditions: read-out: Activity
[12] = system: HCT-15; assay: Cytotoxicity against human HCT15 cells assessed as cell growth at 100 uM after 1 to 11 days by MTT assay; conditions: read-out: Activity
[13] = system: Malme-3M; assay: Cytotoxicity against human MALME-3M cells after 1 to 11 days by MTT assay
[14] = system: UACC-62; assay: Cytotoxicity against human UACC62 cells after 1 to 11 days by MTT assay
[15] = system: HOP-92; assay: Cytotoxicity against human HOP92 cells assessed as cell growth at 10 uM after 1 to 11 days by MTT assay; conditions: read-out: Activity
[16] = system: NCI/ADR-RES; assay: Cytotoxicity against human NCI/ADR-RES cells after 1 to 11 days by MTT assay
[17] = system: UACC-62; assay: Cytotoxicity against human UACC62 cells assessed as cell growth at 100 uM after 1 to 11 days by MTT assay; conditions: read-out: Activity
[18] = system: UO-31; assay: Cytotoxicity against human UO31 cells assessed as cell growth at 1 mM after 1 to 11 days by MTT assay; conditions: read-out: Activity
[19] = system: TK-10; assay: Cytotoxicity against human TK10 cells assessed as cell growth at 0.1 uM after 1 to 11 days by MTT assay; conditions: read-out: Activity
[20] = system: A549; assay: Cytotoxicity against human A549 cells assessed as cell growth at 100 uM after 1 to 11 days by MTT assay; conditions: read-out: Activity
[21] = system: A549; assay: Cytotoxicity against human A549 cells after 1 to 11 days by MTT assay
[22] = system: LOX IMVI; assay: Cytotoxicity against human LOXIMVI cells assessed as cell growth at 1 mM after 1 to 11 days by MTT assay; conditions: read-out: Activity
[23] = system: RXF 393; assay: Cytotoxicity against human […] cells assessed as cell growth at 100 uM after 1 to 11 days by MTT assay; conditions: read-out: Activity
[24] = system: SN12C; assay: Cytotoxicity against human SN12C cells assessed as cell growth at 0.1 uM after 1 to 11 days by MTT assay; conditions: read-out: Activity
[25] = system: NCI-H322M; assay: Cytotoxicity against human NCI-H322M cells assessed as cell growth at 1 uM after 1 to 11 days by MTT assay; conditions: read-out: Activity
[26] = system: A498; assay: Cytotoxicity against human A498 cells assessed as cell growth at 100 uM after 1 to 11 days by MTT assay; conditions: read-out: Activity
[27] = system: Malme-3M; assay: Cytotoxicity against human MALME-3M cells assessed as cell growth at 1 uM after 1 to 11 days by MTT assay; conditions: read-out: Activity
[28] = system: RPMI-8226; assay: Cytotoxicity against human RPMI8226 cells after 1 to 11 days by MTT assay
[29] = Cytotoxicity against human Hs 578T cells assessed as cell growth at 0.1 uM after 1 to 11 days by MTT assay; conditions: read-out: Activity
[30] = system: U-251; assay: Cytotoxicity against human U251 cells assessed as cell growth at 10 uM after 1 to 11 days by MTT assay; conditions: read-out: Activity
[31] = system: MCF7; assay: Cytotoxicity against human MCF7 cells after 1 to 11 days by MTT assay
[32] = system: MCF7; assay: Cytotoxicity against human MCF7 cells assessed as cell growth at 100 uM after 1 to 11 days by MTT assay; conditions: read-out: Activity
[33] = system: SNB-19; assay: Cytotoxicity against human SNB19 cells assessed as cell growth at 10 uM after 1 to 11 days by MTT assay; conditions: read-out: Activity
[34] = system: SK-MEL-5; assay: Cytotoxicity against human SK-MEL-5 cells assessed as cell growth at 10 uM after 1 to 11 days by MTT assay; conditions: read-out: Activity
[35] = system: COLO 205; assay: Cytotoxicity against human COLO205 cells assessed as cell growth at 100 uM after 1 to 11 days by MTT assay; conditions: read-out: Activity
[36] = system: HOP-92; assay: Cytotoxicity against human HOP92 cells after 1 to 11 days by MTT assay
[37] = system: KM12; assay: Cytotoxicity against human KM12 cells assessed as cell growth at 100 uM after 1 to 11 days by MTT assay; conditions: read-out: Activity
[38] = system: SK-OV-3; assay: Cytotoxicity against human SKOV3 cells assessed as cell growth at 1 mM after 1 to 11 days by MTT assay; conditions: read-out: Activity
[39] = system: NCI-H322M; assay: Cytotoxicity against human NCI-H322M cells assessed as cell growth at 1 mM after 1 to 11 days by MTT assay; conditions: read-out: Activity
[40] = system: BT-549; assay: Cytotoxicity against human BT549 cells assessed as cell growth at 100 uM after 1 to 11 days by MTT assay; conditions: read-out: Activity
[41] = system: A498; assay: Cytotoxicity against human A498 cells assessed as cell growth at 1 uM after 1 to 11 days by MTT assay; conditions: read-out: Activity
[42] = system: OVCAR-4; assay: Cytotoxicity against human OVCAR4 cells after 1 to 11 days by MTT assay
[43] = system: UACC-257; assay: Cytotoxicity against human UACC257 cells after 1 to 11 days by MTT assay
[44] = read-out: LC50 (the source's name)

SMILES: O=C1Nc2ncccc2/C1=C1/Nc2ccccc2/C1=N\O
- growth at 0.1 µM [1]: 94%
- growth at 10 µM [2]: 87%
- growth at 10 µM [3]: 56%
- growth at 0.1 µM [4]: 94%
- growth at 0.1 µM [5]: 99%
- growth at 10 µM [6]: 94%
- growth at 0.1 µM [7]: 89%
- GI50 [8]: 9.72 µM
- TGI [8]: > 100 µM
- CC50 [8, 44]: > 100 µM
- growth at 0.1 µM [9]: 119%
- growth at 1 µM [10]: 88%
- growth at 0.1 µM [11]: 94%
- growth at 100 µM [12]: 27%
- GI50 [13]: 3.36 µM
- TGI [13]: 172 µM
- CC50 [13, 44]: > 100 µM
- GI50 [14]: 3.49 µM
- TGI [14]: > 100 µM
- CC50 [14, 44]: > 100 µM
- growth at 10 µM [15]: 62%
- GI50 [16]: > 100 µM
- TGI [16]: > 100 µM
- CC50 [16, 44]: > 100 µM
- growth at 100 µM [17]: 27%
- growth at 1000 µM [18]: 11%
- growth at 0.1 µM [19]: 101%
- growth at 100 µM [20]: 15%
- GI50 [21]: 3.5 µM
- TGI [21]: > 100 µM
- CC50 [21, 44]: > 100 µM
- growth at 1000 µM [22]: 30%
- growth at 100 µM [23]: -9%
- growth at 0.1 µM [24]: 93%
- growth at 1 µM [25]: 82%
- growth at 100 µM [26]: 18%
- growth at 1 µM [27]: 89%
- GI50 [28]: 1.89 µM
- TGI [28]: 62.5 µM
- CC50 [28, 44]: > 100 µM
- growth at 0.1 µM [29]: 97%
- growth at 10 µM [30]: 89%
- GI50 [31]: 15.9 µM
- TGI [31]: > 100 µM
- CC50 [31, 44]: > 100 µM
- growth at 100 µM [32]: 52%
- growth at 10 µM [33]: 94%
- growth at 10 µM [34]: 94%
- growth at 100 µM [35]: 59%
- GI50 [36]: 2.97 µM
- TGI [36]: > 100 µM
- CC50 [36, 44]: > 100 µM
- growth at 100 µM [37]: 6%
- growth at 1000 µM [38]: 8%
- growth at 1000 µM [39]: 12%
- growth at 100 µM [40]: 43%
- growth at 1 µM [41]: 85%
- GI50 [42]: 9.1 µM
- TGI [42]: > 100 µM
- CC50 [42, 44]: > 100 µM
- GI50 [43]: > 100 µM
- TGI [43]: > 100 µM
- CC50 [43, 44]: > 100 µM
